According to patent US11807895B2, “High-throughput drug and genetic assays for cellular transformation” (THE BROAD INSTITUTE, INC., priority 2015, dated 2023):
“Also recorded” adds a separate entry of the source. Where a name gives a salt, the structure may show the parent alone.

Assays:
[1] = test system: fibroblasts transformed with TERT, SV40 T-antigen, and H-RAS; assay: GILA (growth in low attachment) drug screen, ATP/CellTiter-Glo viability; type: cell-based, human; conditions: 633 kinase inhibitors and FDA-approved drugs screened at 30 μM or 10 μM, 5 days
Excerpt: To identify drugs specifically inhibiting the oncogenic state of fibroblasts transformed with TERT, SV40 T-antigen, and H-RAS (Hahn W C, et al. (1999) Creation of human tumour cells with defined genetic elements. Nature 400:464-468.), GILA was used as a primary screen and growth on standard high-attachment plates as a counterscreen.
Transformed fibroblast cells were maintained as subconfluent monolayers, trypsinized, and seeded in 96-well plates (for analytical assays, FIG. 14) or in 384-well white plates (for screens, FIG. 3). The cell concentration was optimized to 1000 cells/well in 100 μl medium (for 96-well plate) or 50 cells/well in 30 μl growth medium (for 384-well plate). Two types of plates were used in the screens: high-attachment conditions (Corning, 3704) and Ultra Low-attachment (Sumitomo, PrimeSurface384U). Cells were seeded automatically using the liquid rapid dispenser Metrix WellMate (Thermo). Two small molecule libraries (NIH Clinical Collection 1-2013 and Kinase Inhibitor Focused Library) were transferred to each microplate, at 100 nl drug per well, to final concentration of 30 μM or 10 μM, respectively, by using the robotic transfer system (Seiko Epson) and pin array (V&P). Controls were added by multichannel pipette. After 5 days of incubation at 37° C. in 5% CO2, the cells were assayed for ATP content. […] The secondary screen was conducted similarly, except that an HP D300 Digital Liquid Dispenser and T8 dispenseheads (HP) was used to add 4 different concentrations of small molecules to the cells.
Crosstalk corrected values from EnVision reader were used to normalize the luminescence from each wells.

[2] = test system: ascites-derived ovarian cancer cells from patients; assay: Ex-vivo GILA drug sensitivity of patient-derived cancer cells; type: cell-based, human; conditions: for inhibitory activity in ex-vivo GILA assay: 5 patients who failed multiple lines of treatment, 5000 cells per well, 72 hours; for dose dependence of viability in ex-vivo GILA: ovary cancer patient derived cells
Protocol: Patient-derived ovarian cancer cells are sensitive to FDA-approved drugs identified in the GILA-based screen. […] Immediately after procurement, ascites samples were processed and 5000 cells per well were flow-sorted into 96-well microtiter plates with low or high-attachment surfaces containing 100 μl of growth medium per well.
Cell viability was measured with the CellTiter-Glo (Promega) luminescent assay, using the EnVision Plate Reader (PerkinElmer) or the SpectraMax M5 Multi-Mode Microplate Reader (Molecular Devices). For high-attachment growth, tissue culture-treated 96-well clear plates (#3997, Corning) were used, while for the GILA assay low attachment surface plates (#3474, Corning) of 96-well clear plates were used for 3 to 5 days. Later the cells were moved to 96-Well Solid White Polystyrene Microplate (#3362, 14 Corning) for reading luminescence signal. To avoid bleeding of luminescence between the wells, every other well left empty in the solid white microplate. 30 μl of CTG reagent was used for 384-well microplates, and 100 μl for 96-well microplates. The cells were moderately shaken for 5 minutes in the reagent, followed by incubation for 20 minutes to ensure cell lysis. No background signal was detected from wells containing only culture medium.
Under an institutional review board approved protocol, freshly discarded ascites from patients with advanced stage ovarian cancers was collected from 5 individuals. Ascites fluid was immediately transferred on ice for further processing. Samples were spun down and red blood cells were removed with hypotonic lysis using ACK lysing buffer (Life Technologies). Cells were filtered through a 40 μm mesh and washed in PBS with 2% FBS and subjected to staining for FACS.
Cells were prepared per standard protocols, stained with Calcein-AM, CD45-FITC, EPCAM-PE and CD24-PE/Cy7 and incubated for 20 minutes on ice. Cells were washed with […] prior to flow-sorting. After doublet discrimination and compensation for spectral overlap, single, viable cells, negative for CD45 and positive for EPCAM and CD24 were flow-sorted into wells (96 well plates) prepared with growth 15 medium. Samples were sorted on a BD FACSAria SORP and analyzed using BD FACSDiva Software (BD Biosciences).

[3] = test system: IL-6; conditions: Hong et al. 2012: LPS-stimulated mouse macrophages and TG-injected mice; cited from earlier work
[4] = listed as Azelastine hydrochloride, hydrochloride

**Q.** For `Cc1cccc(-c2[nH]ncc2-c2ccc3ncccc3n2)n1` [RepSox], which “hit in GILA-based drug screen (inhibits growth in low attachment, less pronounced effect on high attachment)” value [1] is on record?
**A.** identified and validated in the drug screen

**Q.** For `CN1CCCC(n2nc(Cc3ccc(Cl)cc3)c3ccccc3c2=O)CC1` (stereo not drawn) [azelastine hydrochloride], which “hit in GILA-based drug screen (inhibits growth in low attachment, less pronounced effect on high attachment)” value [1] is on record?
**A.** identified and validated in the drug screen

**Q.** And the “inhibitory activity in ex-vivo GILA assay” value (shortened to “inhibitory activity”) [2, 4]?
**A.** highly effective at inhibiting growth

**Q.** And the “inhibitory activity” value ([2]; listed as azelastine, hydrochloride)?
**A.** demonstrated inhibitory activity

**Q.** What about the “dose dependence of viability in ex-vivo GILA” value ([2]; hydrochloride) of the same compound?
**A.** dose dependent response

**Q.** And the “dose dependence of viability in ex-vivo GILA” value [2, 4]?
**A.** concentration-dependent viability

**Q.** With `C=C1/C(=C\C=C2/CCC[C@]3(C)[C@@H]([C@H](C)/C=C/[C@@H](O)C4CC4)CC[C@@H]23)C[C@@H](O)C[C@@H]1O` [calcipotriol] as the compound, how does the “hit in GILA-based drug screen (inhibits growth in low attachment, less pronounced effect on high attachment)” value [1] read?
**A.** top hits

**Q.** With `CC(=O)Oc1ccccc1C(=O)Nc1ncc([N+](=O)[O-])s1` [nitazoxanide] as the compound, how does the “hit in GILA-based drug screen (inhibits growth in low attachment, less pronounced effect on high attachment)” value [1] read?
**A.** top hits; also recorded: identified and validated in the drug screen

**Q.** What about the “inhibitory activity” value [2] of the same compound?
**A.** demonstrated inhibitory activity

**Q.** What about the IL-6 suppression [3] of the same compound?
**A.** suppresses IL-6

**Q.** Which “hit in GILA-based drug screen (inhibits growth in low attachment, less pronounced effect on high attachment)” value [1] does the source give for `COc1ccc(-c2cc(=O)c3c(OC)c(OC)c(OC)c(OC)c3o2)cc1OC` [nobiletin] here?
**A.** identified and validated in the drug screen

**Q.** With `CC(C)CC(N(C)C)C1(c2ccc(Cl)cc2)CCC1` (stereo not drawn) [sibutramine] as the compound, how does the “hit in GILA-based drug screen (inhibits growth in low attachment, less pronounced effect on high attachment)” value [1] read?
**A.** top hits
